Test results published in patent EP0471516A1, “Tricyclic heterocyclic derivatives” (IMPERIAL CHEMICAL INDUSTRIES PLC, priority 1990, dated 1992).

Experiments:
topoisomerase-II = experiment: Test (a): in vitro topoisomerase-II interaction assay, DNA fragmentation of labelled pUC18 plasmid; assay type: biochemical, human; settings: test compound at 100 µM; for activity in Test (a): DNA fragmentation with topoisomerase-II from HeLa cells
Description: (a) An in vitro assay which determines the ability of a test compound to interact with the enzyme topoisomerase-II, obtained in partially purified form from human HeLa cervical carcinoma cells grown in cell culture. Aliquots of the topoisomerase-II so obtained are added to a mixture of plasmid DNA [0.5 ng of a linearised pUC18 plasmid labelled with [³²P]-ATP], test compound (dissolved in dimethylsulphoxide) and a conventional buffer solution comprising essential salts, bovine serum albumin, ATP, EDTA and 2-mercaptoethanol. The mixture is incubated at 30°C for 10 minutes. Sodium dodecylsulphate and proteinase K are added in turn to give final concentrations of 1% w/v and 2 mg/ml respectively and the mixture is heated to 45°C to effect proteolysis. The resultant mixture is analysed by electrophoresis on a polyacrylamide gel at pH 8.3 and 450 volts for one hour. Thereafter the gel is fixed, dried and autoradiogrammed to determine the extent of DNA fragmentation.

[1] = test system: small-cell lung cancer cell line N417A; experiment: Test (b): growth inhibition of N417A cells in culture, tetrazolium salt method; assay type: cell-based; settings: read-out: IC₅₀
Text: (b) Any assay which determines the ability of a test compound to inhibit the growth of the small-cell lung cancer cell line N417A in cell culture. The test is similar to that described by T. Mosmann (J. Immunol. Meths., 1983, 65, 55-63) but using the tetrazolium salt method of J. Carmichael et al. (J. Cancer Res., 1987, 47, 936-942) to assess the reductive capacity of any viable cells.

Compound | etoposide concentration giving activity equivalent to the test compound in Test (a) (topoisomerase-II) | activity in Test (a) (topoisomerase-II) | IC50 [1]
COc1cc(Cn2c3ccccc3c(=O)c3ccc(S(=O)(=O)CCN(C)C)cc32)cc(OC)c1O [3-(2-dimethylaminoethylsulphonyl)-10-(4-hydroxy-3,5-dimethoxybenzyl)-9,10-dihydroacridin-9-one] | 100 µM | significant activity | 0.8 µM
COc1cc(Cn2c3ccccc3c(=O)c3ccc(Cl)cc32)cc(OC)c1O [3-chloro-10-(4-hydroxy-3,5-dimethoxybenzyl)-9,10-dihydroacridin-9-one] | 25 µM | significant activity | 0.4 µM
COc1cc(Cn2c3ccccc3c(=O)c3cccnc32)cc(OC)c1O [10-(4-hydroxy-3,5-dimethoxybenzyl)-5,10-dihydrobenzo[b][1,8]naphthyridin-5-one] | 50 µM | significant activity | 3.7 µM
